Data reported in patent US20120183579A1, “COMPOUNDS FOR INFLAMMATION AND IMMUNE-RELATED USES” (Synta Pharmaceuticals Corp., priority 2008, published 2012).

Experiments:
CRACM1/STIM1-CHOK1 = target: T1, CRACM1/STIM1-CHOK1 (Homo sapiens, UniProt Q96D31); experiment: Patch clamp inhibition of ICRAC current in CRACM1/STIM1-CHOK1 cells; format: cell-based; settings: at 500 nM, activity class
T1 construct: Full length human Stim1, CracM1, CracM2 and CracM3 cDNA; Stim1 induced with doxycycline
Method: Manual patch clamp experiments are conducted in the tight-seal whole-cell configuration at room temperature (21-25° C.). Patch pipettes are fashioned from borosilicate glass capillary tubes and have resistances between 2-4 MO after filling with standard intracellular solution. High resolution current recordings are acquired with a computer-based patch clamp amplifier system (EPC-10, HEKA, Lambrecht, Germany). All voltages are corrected for a liquid junction potential of 10 mV between external and internal solutions with glutamate as the intracellular anion. Currents are filtered at 2.9 kHz and digitized at 10 μs intervals. Capacitive currents and series resistance are determined and corrected before each voltage ramp using the automatic capacitance compensation of the EPC-10.
In general, a whole cell patch clamp method is used to examine the effects of a compound of the invention on a channel(s) that mediates ICRAC. In such experiments, a baseline ICRAC measurement is established within the first 70 voltage ramps, or 140 seconds, for a patched cell. Then the cells are perfused with the compound to be tested and the effect of the compound on ICRAC is measured for at least an additional 440 to 500 seconds. A compound that modulates ICRAC (e.g., inhibits) is a compound that is useful in the invention for modulating CRAC ion channel activity.
Each compound is diluted from a 10 mM stock in series using DMSO. The final DMSO concentration is always kept at 0.1%.
ICRAC currents are measured using 50 msec voltage ramps between −100 mV to +100 mV. The voltage ramps are stimulated every 2 seconds for the first 70 sweeps, then every 5 seconds for the remainder of the experiment. The membrane potential is held at 0 mV between the test ramps. In a typical experiment, the peak inward currents will develop within 50-100 seconds. Once the ICRAC current is stabilized, the cells are perfused with a test compound in the extracellular solution for at least an additional 500 seconds.
Off-line analysis with the Heka PatchMaster software is used to separate the ICRAC membrane current from the cells basal background currents. In a typical recording, InsP3 stimulated ICRAC currents begin to develop in 6 to 12 seconds after whole cell is established. Therefore, the first 1-4 voltage ramps represent the basal membrane currents in the absence of ICRAC and the average value is subtracted from all subsequent traces. The current value at −80 mV for each ramp trace is then measured and plotted against time. The resulting current versus time data is exported into a Microsoft Excel spreadsheet. The % ICRAC inhibition in each cell is calculated by comparing the amount of current just prior to the compound perfusion to the amount of current after the cells has been perfused with the compound for 440-500 seconds. The IC50 value and Hill coefficient for each compound is estimated by fitting all the individual data points to a single-site Hill equation.
TREx™-CHO cells were transfected with human Stim1 (recombinant DNA in pcDNA4/TO/myc-His™ A with a myc epitope tag in the N-terminal) and either CracM1, CracM2 or CracM3 (recombinant DNA in pcDNA 3.1 with a HA epitope tag in the N-terminal). Stably expressing cells were selected by growing the transfected cells in antibiotics for two to three weeks. Individual cell clones were isolated via serial dilution. […]

IL-2 = experiment: Inhibition of IL-2 production (Jurkat cells activated with PHA, ELISA); format: cell-based; settings: Homo sapiens, Jurkat, Jurkat/PHA/1% FBS
Method: Jurkat cells were placed in a 96 well plate (0.5 million cells per well in 1% FBS medium), and then a test compound of this invention was added at different concentrations. After 10 minutes, the cells were activated with PHA (final concentration 2.5 μg/mL) and incubated for 20 hours at 37° C. under 5% CO2. The final volume was 200 μL. Following incubation, the cells were centrifuged, and the supernatants collected and stored at −70° C. prior to assaying for IL-2 production. A commercial ELISA kit (IL-2 Eli-pair, Diaclone Research, Besancon, France) was used to detect production of IL-2, from which dose response curves were obtained. The IC50 value was calculated as the concentration at which 50% of maximum IL-2 production after stimulation was inhibited versus a non-stimulation control.

T1 sequence (Q96D31 whole entry): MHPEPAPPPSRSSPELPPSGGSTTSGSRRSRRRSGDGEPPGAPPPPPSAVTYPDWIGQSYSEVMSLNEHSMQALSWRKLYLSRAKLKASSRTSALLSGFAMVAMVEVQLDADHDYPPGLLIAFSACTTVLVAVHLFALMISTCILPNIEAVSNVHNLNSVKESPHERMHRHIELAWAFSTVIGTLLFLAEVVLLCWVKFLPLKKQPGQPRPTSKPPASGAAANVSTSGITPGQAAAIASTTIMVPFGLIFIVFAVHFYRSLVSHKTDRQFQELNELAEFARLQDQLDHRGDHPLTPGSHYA

SMILES | inhibition at 0.5 µM (CRACM1/STIM1-CHOK1) [%] | IC50 (IL-2; activity class) [nM] | IC50 (IL-2; numeric values) [nM]
CC1=C(c2cnc(NC(=O)c3c(F)cccc3F)cn2)CN(S(=O)(=O)N(C)C)CC1 [Compound 2] | 70 to 100 | > 100 | 
CC1=C(c2ccc(NC(=O)c3cccc(F)c3F)cc2)CN(c2nccs2)CC1 [Compound 11, 2,3-difluoro-N-(4-(4-methyl-1-(thiazol-2-yl)-1,2,5,6-tetrahydropyridin-3-yl)phenyl)benzamide] | 70 to 100 | < 50 | 
CC1=C(c2ccc(NC(=O)c3ccncc3C)cc2)CN(c2nccnc2Cl)CC1 [Compound 14, N-(4-(1-(3-chloropyrazin-2-yl)-4-methyl-1,2,5,6-tetrahydropyridin-3-yl)phenyl)-3-methylisonicotinamide] | 50 to 70 | < 50 | 
CC1=C(c2ccc(NC(=O)c3ccncc3F)cc2)CN(c2nccnc2Cl)CC1 [Compound 15, N-(4-(1-(3-chloropyrazin-2-yl)-4-methyl-1,2,5,6-tetrahydropyridin-3-yl)phenyl)-3-fluoroisonicotinamide] | 50 to 70 | < 50 | 
CC1=C(c2ccc(NC(=O)c3c(F)cccc3F)cc2)CN(c2cnccn2)CC1 [Compound 58, 2,6-difluoro-N-(4-(4-methyl-1-(pyrazin-2-yl)-1,2,5,6-tetrahydropyridin-3-yl)phenyl)benzamide] |  |  | 44
C=CCOC(=O)N1CCC(C)=C(c2ccc(NC(=O)c3c(F)cccc3F)cc2)C1 [Compound 61, allyl 3-(4-(2,6-difluorobenzamido)phenyl)-4-methyl-5,6-dihydropyridine-1(2H)-carboxylate] |  |  | 46
CC1=C(c2ccc(NC(=O)c3c(F)cccc3F)cc2)CN(S(=O)(=O)N(C)C)CC1 [Compound 64, N-(4-(1-(N,N-dimethylsulfamoyl)-4-methyl-1,2,5,6-tetrahydropyridin-3-yl)phenyl)-2,6-difluorobenzamide] |  |  | 49

Second part, the molecule after the results:

inhibition at 0.5 µM (CRACM1/STIM1-CHOK1) [%] | IC50 (IL-2; activity class) [nM] | IC50 (IL-2; numeric values) [nM] | SMILES
70 to 100 | 50 to 100 |  | CC1=C(c2cnc(NC(=O)c3c(F)cccc3F)cn2)CN(c2nc(C)cs2)CC1 [Compound 1, 2,6-difluoro-N-(5-(4-methyl-1-(4-methylthiazol-2-yl)-1,2,5,6-tetrahydropyridin-3-yl)pyrazin-2-yl)benzamide]
 |  | 44 | CC1=C(c2cnc(NC(=O)c3c(F)cccc3F)cn2)CN(c2nc(-c3cccnc3)cs2)CC1 [Compound 59, 2,6-difluoro-N-(5-(4-methyl-1-(4-(pyridin-3-yl)thiazol-2-yl)-1,2,5,6-tetrahydropyridin-3-yl)pyrazin-2-yl)benzamide]
 |  | 46 | COc1cc(F)c(C(=O)Nc2cnc(C3=C(C)CCN(c4ncccc4F)C3)cn2)c(F)c1 [Compound 60, 2,6-difluoro-N-(5-(1-(3-fluoropyridin-2-yl)-4-methyl-1,2,5,6-tetrahydropyridin-3-yl)pyrazin-2-yl)-4-methoxybenzamide]
 |  | 49 | Cn1nnc(N2CCC(Cl)=C(c3cnc(NC(=O)c4cc(F)ccc4Cl)cn3)C2)n1 [Compound 62, 2-chloro-N-(5-(4-chloro-1-(2-methyl-2H-tetrazol-5-yl)-1,2,5,6-tetrahydropyridin-3-yl)pyrazin-2-yl)-5-fluorobenzamide]
 |  | 49 | CC1=C(c2cnc(NC(=O)c3ccc(F)cc3Cl)cn2)CN(c2ncccc2F)CC1 [Compound 63, 2-chloro-4-fluoro-N-(5-(1-(3-fluoropyridin-2-yl)-4-methyl-1,2,5,6-tetrahydropyridin-3-yl)pyrazin-2-yl) benzamide]
